This is an account of results in ChEMBL document CHEMBL5226371, “Hyperhubeins A-I, Bioactive Sesquiterpenes with Diverse Skeletons from Hypericum hubeiense” (J Nat Prod, 2023).

What is called IC50 is the concentration that gives 50% inhibition. Read a high IC50 as lower potency.

The source made the active and inactive calls. The rule behind the calls is not given here.

The first series concerns BV-2. Kind of series: Anti-neuroinflammatory activity in mouse BV-2 cells assessed as reduction in LPS-induced COX-2 expression at 10 uM by Western blot analysis. It is filed as functional, cell-based.
Conditions: not given
Take `C=C(C)[C@@H]1CC(=O)C2=CC(=O)C[C@@H](C)[C@]2(C)C1`: the outcome was Active.

System in a further series: not listed separately
Kind of series: Inhibition of NO production in LPS-induced mouse BV-2 cells incubated for 24 hrs by Griess reagent based microplate reader analysis. The settings on record: BV-2, 24 h. It is filed as functional, cell-based. In general terms: Nitrite, measured by Griess reagent, commonly stands in for NO production.
In the case of `C=C1CCC(=O)[C@]2(C)CC[C@@H](C(C)C)[C@H](O)[C@@H]12`, the midpoint of inhibition, the IC50, lay at 4.92 µM.
As for `O=c1c(O)c(-c2ccc(O)c(O)c2)oc2cc(O)cc(O)c12` [QUERCETIN], half-maximal inhibition (IC50) required 6.5 µM.
Same read-out and setting: with `C=C1CCC[C@H]2[C@@H]1[C@@H](C(C)=O)C[C@H]2C(C)C` the figure was 5.91 µM.
With `C=C1CCC[C@H]2[C@@H]1[C@H](C(C)=O)C[C@H]2C(C)C`, the IC50 amounted to 6.81 µM.
On the same count and under the same terms, in the case of `C=C(C)[C@@H]1CC(=O)C2=CC(=O)C[C@@H](C)[C@]2(C)C1` it was 6.23 µM.

Another series deals with BV-2. Kind of series: Anti-neuroinflammatory activity in mouse BV-2 cells assessed as reduction in LPS-induced iNOS expression at 10 uM by Western blot analysis. The series is classed as functional, cell-based.
Conditions: not given
In the case of `C=C(C)[C@@H]1CC(=O)C2=CC(=O)C[C@@H](C)[C@]2(C)C1`, the outcome was Active.

The test system of the next series is BV-2. Kind of series: Cytotoxicity against mouse BV-2 cells assessed as reduction in cell viability by MTT-based colorimetric method. The series is classed as toxicity.
Conditions: not given
A general note: Tetrazolium dyes change colour on reduction, which living cells bring about.
For the compound `C=C1CCC(=O)[C@]2(C)CC[C@@H](C(C)C)[C@H](O)[C@@H]12`, the Activity result is “Non-Toxic”.
On the same count and under the same terms, in the case of `C=C1CCC[C@H]2[C@@H]1[C@@H](C(C)=O)C[C@H]2C(C)C` it was “Non-Toxic”; in that of `C=C1CCC[C@H]2[C@@H]1[C@H](C(C)=O)C[C@H]2C(C)C`, “Non-Toxic”.
On the same count and under the same terms, with `C=C(C)[C@@H]1CC(=O)C2=CC(=O)C[C@@H](C)[C@]2(C)C1` the entry was “Non-Toxic”.

Another series relates to BV-2. Kind of series: Anti-neuroinflammatory activity in LPS-stimulated mouse BV-2 cells assessed as reduction in ratio of phosphorylated NF-kappaB to NFkappaB at 10 uM by Western blot analysis.
Conditions: not given
The series is classed as functional, cell-based. Background: In western blotting, separated proteins are transferred to a membrane and probed.
For the compound `C=C(C)[C@@H]1CC(=O)C2=CC(=O)C[C@@H](C)[C@]2(C)C1`, the outcome was Active.

Another series relates to PC-12. Kind of series: Neuroprotective activity against H2O2-induced cell injury in rat PC-12 cells assessed as increase in cell survival at 10 uM preincubated with compound for 24 hrs followed by H2O2 addition and measured after 24 hrs by MTT assay. The series is classed as functional, cell-based. The settings on record: time 48.0 hrs.
Turning to `C=C1CC[C@H]2O[C@]2(C)CC[C@@H]2[C@@H]1CC2(C)C`, the result was Active.
Regarding `CC1=CC[C@H](O)[C@@]2(C)CC[C@H](C(C)(C)O[C@@H]3O[C@H](CO)[C@@H](O)[C@H](O)[C@H]3O)C[C@@H]12`, the outcome was Active.
On the same count and under the same terms, in the case of `C=C(CO[C@@H]1O[C@H](CO)[C@@H](O)[C@H](O)[C@H]1O)[C@@H]1CC[C@@]2(O)CCC[C@@H](C)[C@]2(C)C1` it was “Active”; in that of `C=C(C)[C@H]1CC[C@]2(C)O[C@H]2CC[C@@]2(C)O[C@@H]2C1`, “Active”.
`C=C1CCC[C@H]2[C@@H]1[C@@H](C(C)=O)C[C@H]2C(C)C`: the outcome was Active.
Turning to `C=C(C)[C@@H]1CC[C@@]2(C)[C@H](O)CC[C@@](C)(O)[C@@H]2C1`, the result was Active.
On the same count and under the same terms, with `C=C(C)[C@@H]1CCC2=C[C@H](OC)C[C@@H](C)[C@]2(C)C1` the entry was “Active”; with `C=C1CCC[C@H]2[C@@H]1[C@H](C(C)=O)C[C@H]2C(C)C`, “Active”.

The next series concerns BV-2. Kind of series: Anti-neuroinflammatory activity in mouse BV-2 cells assessed as reduction in LPS-induced TLR-4 expression at 10 uM by Western blot analysis. It is filed as functional, cell-based.
Conditions: not given
Regarding `C=C(C)[C@@H]1CC(=O)C2=CC(=O)C[C@@H](C)[C@]2(C)C1`, the result was Active.
